{"source": "paper PMC8717366", "about": "“Synthesis and Pharmacological Characterization of Visabron, a Backbone Cyclic Peptide Dual Antagonist of α4β1 (VLA-4)/α9β1 Integrin for Therapy of Multiple Sclerosis” (JACS Au, 2021)", "key": {"[1]": {"molecular_target": "T1, α1β1-collagen IV (Homo sapiens, UniProt P05556+P56199)", "T1 construct": "expressed in transfected cells; host or cells: K562 transfected with α1 integrin (gift of Dr. M. Hemler)", "T1 sequence (P56199 29-1179)": "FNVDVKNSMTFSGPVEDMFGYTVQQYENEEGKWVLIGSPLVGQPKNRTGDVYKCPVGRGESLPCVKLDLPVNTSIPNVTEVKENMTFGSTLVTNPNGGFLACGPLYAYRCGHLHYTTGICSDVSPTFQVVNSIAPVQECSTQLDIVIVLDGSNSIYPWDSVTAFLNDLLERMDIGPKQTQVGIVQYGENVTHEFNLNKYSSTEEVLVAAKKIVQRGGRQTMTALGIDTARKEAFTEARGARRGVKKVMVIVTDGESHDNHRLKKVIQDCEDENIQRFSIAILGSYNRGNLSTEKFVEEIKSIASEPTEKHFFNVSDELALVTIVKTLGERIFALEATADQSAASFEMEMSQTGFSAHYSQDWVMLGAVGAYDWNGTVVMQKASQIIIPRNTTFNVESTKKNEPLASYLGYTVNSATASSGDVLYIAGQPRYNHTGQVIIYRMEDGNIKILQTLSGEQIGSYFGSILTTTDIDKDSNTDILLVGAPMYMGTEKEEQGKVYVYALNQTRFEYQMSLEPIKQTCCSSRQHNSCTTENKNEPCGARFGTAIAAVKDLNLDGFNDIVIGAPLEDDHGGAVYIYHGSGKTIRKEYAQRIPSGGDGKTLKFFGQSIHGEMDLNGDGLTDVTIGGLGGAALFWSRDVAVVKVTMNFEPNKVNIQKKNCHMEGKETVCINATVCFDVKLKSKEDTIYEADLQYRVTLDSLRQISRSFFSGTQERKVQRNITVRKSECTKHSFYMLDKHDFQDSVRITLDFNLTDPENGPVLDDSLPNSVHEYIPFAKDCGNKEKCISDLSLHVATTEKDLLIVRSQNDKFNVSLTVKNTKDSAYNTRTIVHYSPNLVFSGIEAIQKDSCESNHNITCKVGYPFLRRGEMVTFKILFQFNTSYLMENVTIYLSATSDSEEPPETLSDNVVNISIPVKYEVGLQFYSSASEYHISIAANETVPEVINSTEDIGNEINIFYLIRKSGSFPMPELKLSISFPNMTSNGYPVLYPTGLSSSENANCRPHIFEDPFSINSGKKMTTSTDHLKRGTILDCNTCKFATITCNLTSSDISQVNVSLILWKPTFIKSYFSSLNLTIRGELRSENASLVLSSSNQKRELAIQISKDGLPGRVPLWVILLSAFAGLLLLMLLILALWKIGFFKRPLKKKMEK", "T1 sequence (P05556 21-798)": "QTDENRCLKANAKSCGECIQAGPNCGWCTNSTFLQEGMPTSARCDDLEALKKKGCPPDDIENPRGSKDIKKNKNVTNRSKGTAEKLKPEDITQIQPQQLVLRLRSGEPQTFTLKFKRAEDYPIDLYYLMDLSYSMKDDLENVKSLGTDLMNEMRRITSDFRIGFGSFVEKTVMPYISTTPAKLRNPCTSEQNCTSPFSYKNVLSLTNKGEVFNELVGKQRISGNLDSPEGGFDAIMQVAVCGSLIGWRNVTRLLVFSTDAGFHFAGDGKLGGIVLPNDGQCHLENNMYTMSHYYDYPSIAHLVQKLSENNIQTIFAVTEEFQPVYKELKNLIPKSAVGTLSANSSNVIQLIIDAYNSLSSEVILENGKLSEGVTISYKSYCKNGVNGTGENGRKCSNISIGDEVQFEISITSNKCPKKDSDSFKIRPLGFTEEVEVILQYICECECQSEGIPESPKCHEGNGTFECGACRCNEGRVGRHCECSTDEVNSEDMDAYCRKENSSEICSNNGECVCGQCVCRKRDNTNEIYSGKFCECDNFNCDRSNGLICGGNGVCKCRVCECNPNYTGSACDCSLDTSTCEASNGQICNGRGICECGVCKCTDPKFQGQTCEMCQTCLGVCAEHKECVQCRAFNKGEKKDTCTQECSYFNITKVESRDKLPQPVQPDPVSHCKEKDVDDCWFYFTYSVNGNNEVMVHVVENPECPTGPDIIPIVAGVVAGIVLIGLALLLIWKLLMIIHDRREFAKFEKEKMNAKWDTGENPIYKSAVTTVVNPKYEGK", "assay": "Adhesion of α1-K562 overexpressor cells to immobilized collagen IV", "format": "cell-based", "conditions": "α1-K562 overexpressing cells, collagen IV; n=6; Table S6; read-out: IC50 α1β1 (linear peptides)", "method": "(§1) Cell adhesion assay was carried out as previously described[47] with minor modifications. The day before the experiment, each well was coated with VCAM-1 (3 mg/mL) immobilized on the 96-well plate in PBS by overnight incubation at 4 °C. Thereafter, nonspecific binding was blocked by incubating the wells with 1% (w/v) bovine serum albumin (BSA) in Hank’s Balanced Salt Solution (HBSS) containing 5 mM MgCl2 at room temperature for 1 h before use. The cells were labeled by incubation with 12.5 μM 5-chloromethylfluorescein diacetate (CMFDA) in HBSS without 1% BSA at 37 °C for 30 min. The labeled cells were then centrifuged at 1000 rpm and washed twice with HBSS containing 1% BSA to remove excess CMFDA. Labeled cells (about 1 × 10^5 cells/well) were plated on each well in the presence or absence of visabrons and incubated at 37 °C for 60 min. Unbound cells were removed by washing the wells three times with 1% (w/v) BSA in HBSS, and bound cells were lysed by the addition of 0.5% Triton X-100 (diluted in DDW). The fluorescence in each well was quantified with a SPECTRAFluor Plus plate reader (Tecan), at λex = 485 nm and λem = 530 nm. To determine the number of adhered cells from the fluorescence values, a standard curve was generated by serial dilution of known numbers of CMFDA-labeled cells. […]\n(§2) Table S6. TMLD- linear peptides inhibition of adhesion of integrin expressing cells to the respective immobilized ligands a a The cells were incubated for 30 min at 37 °C with the cells (1 x 105) in the 96 -well plate, previously covered with extracellular matrix ligand, in 100 µL of HBSS containing calcium and magnesium. After being washed with the same buffer, the adhered cells were lysed by Triton X-100, and the plate was read using Tecan spectrofluorimeter. The inhibitory dose 50% (IC 50) values represent ing mean ± standard deviatio ns (n=6) were calculated from dose response curves. bJurkat cells,VCAM -1; c α9-SW480 overexpressing cells, VCAM-1; d α1-K562 overexpressing cells, collagen IV ;e α2-K562 overexpressing cells, collagen I; f K562 wild type"}, "[2]": {"molecular_target": "T2, α2β1-collagen I (Homo sapiens, UniProt P05556+P17301)", "T2 construct": "expressed in transfected cells; host or cells: K562 transfected with α2 integrin (gift of Dr. M. Hemler)", "T2 sequence (P17301 30-1181)": "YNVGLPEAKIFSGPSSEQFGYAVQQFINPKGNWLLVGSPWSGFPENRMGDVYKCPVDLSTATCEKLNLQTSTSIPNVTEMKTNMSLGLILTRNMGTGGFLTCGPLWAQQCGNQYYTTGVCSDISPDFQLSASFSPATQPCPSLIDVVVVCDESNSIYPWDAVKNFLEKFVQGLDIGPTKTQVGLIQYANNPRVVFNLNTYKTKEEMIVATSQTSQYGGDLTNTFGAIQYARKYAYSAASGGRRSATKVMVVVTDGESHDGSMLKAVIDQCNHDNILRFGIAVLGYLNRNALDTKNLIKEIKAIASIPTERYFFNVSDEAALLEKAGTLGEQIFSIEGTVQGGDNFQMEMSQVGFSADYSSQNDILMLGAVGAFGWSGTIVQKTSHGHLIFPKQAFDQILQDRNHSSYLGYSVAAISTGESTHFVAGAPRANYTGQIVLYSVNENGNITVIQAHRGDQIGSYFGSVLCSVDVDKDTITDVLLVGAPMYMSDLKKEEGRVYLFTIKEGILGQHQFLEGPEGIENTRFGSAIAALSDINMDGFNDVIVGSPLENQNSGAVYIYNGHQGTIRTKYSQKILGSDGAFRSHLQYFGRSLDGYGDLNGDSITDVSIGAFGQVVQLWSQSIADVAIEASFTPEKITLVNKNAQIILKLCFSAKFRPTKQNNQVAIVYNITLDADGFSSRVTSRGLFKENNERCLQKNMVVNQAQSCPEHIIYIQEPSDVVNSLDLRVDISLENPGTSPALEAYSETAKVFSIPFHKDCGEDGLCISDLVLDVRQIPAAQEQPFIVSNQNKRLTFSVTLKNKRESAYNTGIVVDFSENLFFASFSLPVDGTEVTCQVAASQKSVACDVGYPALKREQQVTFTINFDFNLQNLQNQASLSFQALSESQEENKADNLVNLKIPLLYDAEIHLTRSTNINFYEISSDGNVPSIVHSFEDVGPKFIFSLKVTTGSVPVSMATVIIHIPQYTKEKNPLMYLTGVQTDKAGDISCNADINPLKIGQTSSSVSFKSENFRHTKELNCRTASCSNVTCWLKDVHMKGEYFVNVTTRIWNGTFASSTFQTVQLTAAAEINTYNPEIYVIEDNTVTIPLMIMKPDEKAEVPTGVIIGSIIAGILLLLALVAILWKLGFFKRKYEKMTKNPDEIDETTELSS", "T2 sequence (P05556 21-798)": "as the sequence (P05556 21-798) above", "assay": "Adhesion of α2-K562 overexpressor cells to immobilized collagen I", "format": "cell-based", "conditions": "α2-K562 overexpressing cells, collagen I; n=6; Table S6; read-out: IC50 α2β1 (linear peptides)", "method": "as §1, §2"}, "[3]": {"molecular_target": "T3, α5β1-fibronectin (Homo sapiens, UniProt P05556+P08648)", "T3 construct": "host or cells: K562 wild type", "assay": "Adhesion of wild-type K562 cells to immobilized fibronectin", "format": "cell-based", "conditions": "K562 wild type cells, fibronectin; n=6; Table S6; read-out: IC50 α5β1 (linear peptides)", "method": "as §1, §2"}, "[4]": {"molecular_target": "T4, α4β1 (Jurkat lymphocytes-VCAM-1) (Homo sapiens, UniProt P05556+P13612)", "T4 construct": "host or cells: Jurkat (untreated or TNFα-treated)", "T4 sequence (P13612 34-1032)": "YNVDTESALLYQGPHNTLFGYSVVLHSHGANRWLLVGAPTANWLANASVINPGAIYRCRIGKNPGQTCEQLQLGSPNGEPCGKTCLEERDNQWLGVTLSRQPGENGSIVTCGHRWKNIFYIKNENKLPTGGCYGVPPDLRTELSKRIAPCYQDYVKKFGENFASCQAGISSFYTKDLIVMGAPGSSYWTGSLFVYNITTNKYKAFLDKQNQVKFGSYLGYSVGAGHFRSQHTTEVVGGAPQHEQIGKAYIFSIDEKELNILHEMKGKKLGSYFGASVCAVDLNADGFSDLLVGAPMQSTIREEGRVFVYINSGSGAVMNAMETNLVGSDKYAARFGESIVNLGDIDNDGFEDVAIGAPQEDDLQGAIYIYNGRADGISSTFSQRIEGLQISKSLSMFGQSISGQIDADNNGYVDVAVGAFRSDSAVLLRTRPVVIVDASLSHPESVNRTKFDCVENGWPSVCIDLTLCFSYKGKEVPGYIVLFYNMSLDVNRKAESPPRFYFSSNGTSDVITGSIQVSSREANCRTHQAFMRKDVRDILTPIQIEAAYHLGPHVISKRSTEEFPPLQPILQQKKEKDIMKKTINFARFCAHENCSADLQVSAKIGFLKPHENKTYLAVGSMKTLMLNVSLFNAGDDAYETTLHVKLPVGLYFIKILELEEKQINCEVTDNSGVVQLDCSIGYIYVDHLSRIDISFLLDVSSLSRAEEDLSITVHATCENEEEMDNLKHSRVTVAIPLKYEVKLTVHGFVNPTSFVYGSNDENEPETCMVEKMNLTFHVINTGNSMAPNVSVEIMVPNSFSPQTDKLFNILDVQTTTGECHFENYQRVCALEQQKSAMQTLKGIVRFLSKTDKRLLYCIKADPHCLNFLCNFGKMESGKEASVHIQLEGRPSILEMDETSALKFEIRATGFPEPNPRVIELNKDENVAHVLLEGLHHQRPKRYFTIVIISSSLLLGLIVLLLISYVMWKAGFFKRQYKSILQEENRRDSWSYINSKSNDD", "T4 sequence (P05556 21-798)": "as the sequence (P05556 21-798) above", "assay": "Adhesion of Jurkat lymphocytes to immobilized VCAM-1", "format": "cell-based", "conditions": "Jurkat cells, VCAM-1; n=6; Table S6; read-out: IC50 α4β1 (linear peptides)", "method": "as §1, §2"}, "[5]": {"molecular_target": "T5, α9β1 (Homo sapiens, UniProt P05556+Q13797)", "T5 construct": "generated by transfection with full-length α9 expression plasmid pcDNAIneoa9; expressed in transfected cells; host or cells: SW480 transfected with pcDNAIneoa9", "assay": "Adhesion of α9-SW480 overexpressing cells to VCAM-1", "format": "cell-based", "conditions": "n=6, Table S6, read-out: IC50 α9β1 (linear peptides)", "method": "as §2, with “type […]” for “type”\n(1 picture or pasted object on this page, not shown here)"}, "[6]": {"format": "in vitro ADME, male Wistar rats", "conditions": "incubation in rat plasma, 37 °C", "method": "Figure S7- Metabolic stability of linear (blue) and cyclic Visabrons in rat plasma (n=3) […]\n(orange, green, red). The […]\namount of peptides is presented as a percentage of the sample at time 0.\nFigure S8- A. Calibration curve of Visabron c(4-4) (prepared by spiking the standard working stock solution with 15 μl of the different concentration, 20 μl metoprolol (10 μg/mL) and 135 -μl blank rat plasma. B. Profile of plasma concentration of Visabron c(4-4) vs time in rats following i.v. bolus administr ation of 0.515 mg/kg; C. semi - logarithmic plot of plasma concentration of Visabron c(4-4) vs time (n = 4 , mean ± SD). […]\nFor peptide sequencing, the protein digest mixture was subjected to electrospray ionization MS/MS analysis using a QTrap mass spectrometer, equipped with a nanospray source. […] Quantitation of free cysteine residues and disulfide bonds was done as previously described4. […]"}}, "note": "Peptide text beside a SMILES is read from it.", "data": [{"smiles": "CSCC[C@H](NC(=O)[C@@H](NC(=O)CNC(=O)[C@@H](N)CCCCN)[C@@H](C)O)C(=O)N[C@@H](CC(C)C)C(=O)N[C@@H](CC(=O)O)C(=O)NCC(=O)N[C@@H](CC(C)C)C(N)=O", "note": "[sequence 6, KG39TMLDG44L] (H-KGTMLDGL-NH2; N-terminus and C-terminus assumed)", "values": [{"measurement": "IC50", "setting": "[1]", "result": "> 10000", "unit": "µM"}, {"measurement": "IC50", "setting": "[2]", "result": "> 10000", "unit": "µM"}, {"measurement": "IC50", "setting": "[3]", "result": "> 10000", "unit": "µM"}, {"measurement": "IC50", "setting": "[4]", "result": "1550 ± 125", "unit": "µM"}, {"measurement": "IC50", "setting": "[5]", "result": "1450 ± 125", "unit": "µM"}, {"measurement": "half-life", "setting": "[6]", "result": 7, "unit": "min"}]}]}
